Data on one compound can be found in PMC6429200, “Synthesis and Broad Antiviral Activity of Novel 2-aryl-isoindolin-1-ones towards Diverse Enterovirus A71 Clinical Isolates” (Molecules, 2019).

In general, EC50 refers to the concentration giving half of the maximal effect. The term CC50 denotes the concentration at which the toxic effect on the cells reaches its halfway point.

Data set [1] deals with EV-A71 (H strain) VP1 RNA. Put plainly: qRT-PCR of VP1 RNA in infected Vero cells. It counts as cell-based, Enterovirus 71 (EV-A71). Particulars: H strain MOI = 0.1, 1 h infection then A3 for 24 h, RT-qPCR. Here is the method: (§1) To further confirm the anti-EV-A71 activity, the expression levels of VP1 RNA and protein were determined. Vero cells were infected with the H strain of EV-A71 for 1 h followed by treatment with A3 of various concentrations for another 24 h. […] Meanwhile, the antiviral efficacy of A3 was also tested using viral titer reduction assays.
Vero cells (9 × 10^5cells/well) were plated into 6-well culture plates for incubation for 16 h. The medium was removed and cells were infected with EV-A71 (H, MOI = 0.1). After 1 h, various concentrations of A3 were supplemented and incubated for another 24 h. The total RNA of the infected cells was extracted using the RNeasy Mini kit (QIAGEN) according to the manufacturer’s instructions. […] The RNA expression of EV-A71 VP1 was detected with the sense primer 5′-GATATCCCACATTCGGTGA-3′ and the antisense primer 5′-[…] -3′ targeting a conserved region of the VP1 gene. β-Actin mRNA was detected using the sense primers 5′-TGACGGGGT CACCCACA CTGTGCCCATCTA-3′ and the antisense primer 5′-CTAGAAGCATTTG CGGTGGACG ATG-3′. […] The relative amounts of EV-A71 VP1 mRNA were calculated by the comparative Ct method after normalizing the quantity of β-actin [15].
Figure 2 Compound A3 inhibited EV-A71 replication in vitro. […] Intracellular viral VP1 protein (A) and RNA (B) were determined by Western blot and qRT-PCR assays, respectively. […]

Data set [2] deals with EV-A71 strain ShenZhen98 (SZ98). Kind of data set: CPE inhibition assay for anti-EV-A71 in Vero cells, Shenzhen98 strain. The class given is cell-based, Enterovirus 71 (EV-A71). The protocol: (§2) An in-vitro antiviral assay was established using the Africa monkey kidney cell line Vero which was infected with different EV-A71 clinical isolates (BrCr, H, Shenzhen98 and Jiangsu52). A total of 24 synthetic compounds were initially screened in such an assay to determine their inhibitory effect on virus replication at 3-fold diluted concentrations serial (400~0.18 μM). The 50% effective concentration (EC50) of each compound was calculated according to its inhibitory rate values with the Reed–Muench method. The 50% cytotoxic concentration (CC50) was defined as the concentration that inhibited 50% cellular growth in comparison with the controls. The selectivity index (SI) was calculated as CC50/EC50. […] Generally, the EV-A71 H strain was less sensitive to most of the active compounds as compared to the other virus strains.
(§3) EV-A71 strain ShenZhen98 (SZ98) was isolated from the throat swab sample of an HFMD case which occurred in 1998 in China. This was kindly provided by Dr. Qi Jin, Institute of Pathogen Biology, Chinese Academy of Medical Science and Peking Union Medical School, Beijing, China. EV-A71 strains BrCr (VR-1775) and H (VR-1432) were purchased from the ATCC. The EV-A71 strain JS52 was a kind gift from Dr. Xiangzhong Ye, Beijing Wantai Biological Pharmacy Enterprise Co., Ltd. EV-A71 were all passaged in Vero cells.
(§4) The anti-EV-A71 activity of compounds was determined by the CPE inhibition method. Briefly, cells (3 × 10^4 cells/well) were plated into 96-well culture plates for incubation for 24 h. The medium was then removed and cells were infected with EV-A71 with 100TCID50 (50% tissue culture infective doses) in serum-free medium for 1 h at 37 °C. Then, the unbound viruses were removed and various concentrations of compounds were supplemented and incubated for another 48 h. The EC50 was determined by the Reed–Muench method. The selectivity index was calculated as the ratio of CC50/EC50 [15].

A short description of data set [3]: Cytotoxicity assay (CPE) on Vero cells. It counts as cell-based. Particulars: African green monkey; Vero cells, 3 days of incubation, Reed–Muench; read-out: CC50. Here is the method:
as §2
African green monkey kidney (Vero) cells were purchased from the American Type Culture Collection (ATCC) and were cultured in minimum essential medium (MEM) supplemented with 10% fetal bovine serum (FBS) (GIBCO) and antibiotics (100 U/mL penicillin and […] streptomycin) at 37 °C in a 5% CO2 incubator.
The cytotoxic effects of compounds on Vero cells were detected by the cytopathic effect (CPE) assay. Briefly, cells (3 × 10^4 cells/well) were seeded into 96-well culture plates and incubated overnight. Then, the medium was removed and different concentrations of compounds were applied in triplicate. After 3 days of incubation, the CC50 was defined as the concentration that inhibited 50% cellular growth in comparison with the untreated controls, as calculated by the Reed–Muench method.

The subject of data set [4] is EV-A71 strain Jiangsu52 (JS52). Kind of data set: CPE inhibition assay for anti-EV-A71 in Vero cells, Jiangsu52 strain. The class given is cell-based, Enterovirus 71 (EV-A71). Here is the method:
as §2, §3, §4

Data set [5] has as its system EV-A71. Put plainly: Viral titer reduction assay. It counts as cell-based, Enterovirus 71 (EV-A71). Particulars: cells treated after EV-A71 infection. Here is the method:
as §1
Figure 2 Compound A3 inhibited EV-A71 replication in vitro. Vero cells (9 × 10^5 cells/well) were plated into 6-well culture plates and infected with EV-A71 (multiplicity of infection, MOI = 0.1) for 1 h. The infected cells were then treated with the indicated concentrations of A3 for 24 h. Intracellular viral VP1 protein (A) and RNA (B) were determined by Western blot and qRT-PCR assays, respectively. (C) The inhibition of a viral titer by A3. ** p < 0.01 * p < 0.05.

Data set [6] concerns EV-A71 strain H. Kind of data set: CPE inhibition assay for anti-EV-A71 in Vero cells, H strain. The class given is cell-based, Enterovirus 71 (EV-A71). The protocol:
as §2, §3, §4

Data set [7] relates to EV-A71 strain BrCr. Kind of data set: CPE inhibition assay for anti-EV-A71 in Vero cells, BrCr strain. The class given is cell-based, Enterovirus 71 (EV-A71). The protocol: as §2, §3, §4
Where [8] appears, read: Enterovirus A, EVA71, Vero cells, 100TCID50, 48 h.

As for `O=C1c2ccccc2CN1c1ccc(Cl)cc1` [Compound A3, 2-(4-chlorophenyl)isoindolin-1-one], the “VP1 RNA expression level” value in data set [1] is “significantly reduced VP1 RNA expression level in a dose-dependent way”. Also, the “Shenzhen98 SI” value in data set [2] (CC50/EC50) is 199. Further, the EC50 in data set [2] (setting [8]) was 1290 ± 240 nM; in data set [4] (setting [8]) it was 1290 ± 240 nM; in data set [6] (setting [8]) it was 1530 ± 160 nM; in data set [7] (setting [8]) it was 1290 ± 240 nM. The CC50 at 3 days in data set [3] is 257 ± 35.3 µM. For the same compound, the “Jiangsu52 SI” value in data set [4] (CC50/EC50) turned out to be 199. Moreover, the viral titers result in data set [5] is reported as “dose-dependent reduction in viral titers”. In addition, the “H SI” value in data set [6] (CC50/EC50) stood at 168. Further, in data set [7] (CC50/EC50), the “BrCr SI” value came out at 199.
